This experiment concerns the target T1, human P2X4 (Homo sapiens, UniProt Q99571).
T1 sequence (Q99571 1-388): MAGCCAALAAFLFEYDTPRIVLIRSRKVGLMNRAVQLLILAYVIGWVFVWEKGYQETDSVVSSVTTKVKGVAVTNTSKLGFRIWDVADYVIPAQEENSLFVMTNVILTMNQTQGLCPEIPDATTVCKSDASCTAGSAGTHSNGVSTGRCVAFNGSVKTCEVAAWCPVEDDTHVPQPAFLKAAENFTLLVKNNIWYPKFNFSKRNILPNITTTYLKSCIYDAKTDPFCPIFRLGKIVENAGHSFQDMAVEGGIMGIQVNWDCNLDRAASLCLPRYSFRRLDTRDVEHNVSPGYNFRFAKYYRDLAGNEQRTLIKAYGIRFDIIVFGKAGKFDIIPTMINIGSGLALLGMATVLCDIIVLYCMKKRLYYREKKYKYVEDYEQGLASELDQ
The experiment in a line: Human P2X4 HEK Cell FLIPR Assay. In kind it is cell-based. To be noted: agonist Bz-ATP at EC80; for Emax: HEK293, HEK293 cells, percentage of maximal inhibition, read-out: Human P2X4 HEK Cells (FLIPR Assay) avg Efficacy [%]; for IC50: HEK293 cells, individual values listed where some fall outside detection range. A digest of the protocol:
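Calcium flux read by FLIPR for 120 sec after Bz-ATP challenge at EC80 (established each assay day), following 30 min room-temperature compound preincubation in dye-loaded stable human P2X4 HEK293 cells. Peak RFU over basal normalized to agonist control; IC50, maximal inhibition and Hill coefficient from triplicate means.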

Turning to `NS(=O)(=O)c1cc(NC(=O)Cc2cc(F)cc(F)c2)ccc1-c1cncc(C(F)(F)F)c1` [Example 452, 2-(3,5-Difluorophenyl)-N-{3-sulfamoyl-4-[5-(trifluoromethyl)pyridin-3-yl]phenyl}acetamide], the Emax was 65% and the IC50 – broadly, the midpoint of a concentration-inhibition curve – is 76 nM.

Turning to `NS(=O)(=O)c1cc(NC(=O)Cc2cccc(Cl)c2)ccc1-c1cncc(C(F)(F)F)c1` [Example 453, 2-(3-Chlorophenyl)-N-{3-sulfamoyl-4-[5-(trifluoromethyl)pyridin-3-yl]phenyl}acetamide], the Emax was determined as 77% and the IC50 amounted to 74 nM.

With `Cc1ccc(CC(=O)Nc2ccc(-c3cncc(C(F)(F)F)c3)c(S(N)(=O)=O)c2)cc1` [Example 454, 2-(4-Methylphenyl)-N-{3-sulfamoyl-4-[5-(trifluoromethyl)pyridin-3-yl]phenyl}acetamide], the Emax was determined as 58% and the concentration for half-maximal inhibition (IC50) amounted to 1440 nM.

Take `COc1ccc(CC(=O)Nc2ccc(-c3cncc(C(F)(F)F)c3)c(S(N)(=O)=O)c2)cc1` [Example 455, 2-(4-Methoxyphenyl)-N-{3-sulfamoyl-4-[5-(trifluoromethyl)pyridin-3-yl]phenyl}acetamide]: the Emax turned out to be 74% and the IC50 is 5 nM.

Turning to `Cc1ccc(CC(=O)Nc2ccc(-c3cncc(C(F)(F)F)c3)c(S(N)(=O)=O)c2)c(F)c1` [Example 456, 2-(2-Fluoro-4-methylphenyl)-N-{3-sulfamoyl-4-[5-(trifluoromethyl)pyridin-3-yl]phenyl}acetamide], the Emax came out at 59% and the IC50 turned out to be 18 nM.

As for `COc1ccc(CC(=O)Nc2ccc(-c3cncc(C(F)(F)F)c3)c(S(N)(=O)=O)c2)c(F)c1` [Example 457, 2-(2-Fluoro-4-methoxyphenyl)-N-{3-sulfamoyl-4-[5-(trifluoromethyl)pyridin-3-yl]phenyl}acetamide], the Emax stood at 70% and the IC50 worked out at 558 nM.

Consider `NS(=O)(=O)c1cc(NC(=O)Cc2ccc(C(F)F)cc2)ccc1-c1cncc(C(F)(F)F)c1` [Example 458, 2-[4-(Difluoromethyl)phenyl]-N-{3-sulfamoyl-4-[5-(trifluoromethyl)pyridin-3-yl]phenyl}acetamide], for which the Emax is 85% and the IC50 was determined as 1080 nM.

On to `NS(=O)(=O)c1cc(NC(=O)Cc2ccc(Cl)cc2)ccc1-c1ccc(Cl)nc1` [Example 459, 2-(4-Chlorophenyl)-N-[4-(6-chloropyridin-3-yl)-3-sulfamoylphenyl]acetamide], for which the Emax was 88% and the IC50 came out at 1340 nM.

With `NS(=O)(=O)c1cc(NC(=O)Cc2ccccc2F)ccc1-c1ccc(Cl)nc1` [Example 460, N-[4-(6-Chloropyridin-3-yl)-3-sulfamoylphenyl]-2-(2-fluorophenyl)acetamide], the Emax turned out to be 84% and the IC50 stood at 646 nM.

`NS(=O)(=O)c1cc(NC(=O)Cc2c(F)cccc2Cl)ccc1-c1ccc(Cl)nc1` [Example 461, 2-(2-Chloro-6-fluorophenyl)-N-[4-(6-chloropyridin-3-yl)-3-sulfamoylphenyl]acetamide]: the Emax amounted to 93% and the IC50 came out at 137 nM.

As to `NS(=O)(=O)c1cc(NC(=O)Cc2ccc(C(F)(F)F)cc2)ccc1-c1ccc(Cl)nc1` [Example 462, N-[4-(6-Chloropyridin-3-yl)-3-sulfamoylphenyl]-2-[4-(trifluoromethyl)phenyl]acetamide], the Emax was determined as 89% and the IC50 was 929 nM.

Take `NS(=O)(=O)c1cc(NC(=O)Cc2ccccc2C(F)(F)F)ccc1-c1ccc(Cl)nc1` [Example 463, N-[4-(6-Chloropyridin-3-yl)-3-sulfamoylphenyl]-2-[2-(trifluoromethyl)phenyl]acetamide]: the Emax was determined as 99% and the IC50 was 18 nM.

`NS(=O)(=O)c1cc(NC(=O)Cc2cccc(F)c2)ccc1-c1ccc(Cl)nc1` [Example 464, N-[4-(6-Chloropyridin-3-yl)-3-sulfamoylphenyl]-2-(3-fluorophenyl)acetamide]: the Emax is 92% and the IC50 was 648 nM.

With `NS(=O)(=O)c1cc(NC(=O)Cc2ccc(Cl)cc2Cl)ccc1-c1ccc(Cl)nc1` [Example 465, N-[4-(6-Chloropyridin-3-yl)-3-sulfamoylphenyl]-2-(2,4-dichlorophenyl)acetamide], the Emax was determined as 92% and the IC50 came to 26 nM.

Take `NS(=O)(=O)c1cc(NC(=O)Cc2ccc(F)cc2F)ccc1-c1ccc(Cl)nc1` [Example 466, N-[4-(6-Chloropyridin-3-yl)-3-sulfamoylphenyl]-2-(2,4-difluorophenyl)acetamide]: the Emax amounted to 91% and the IC50 worked out at 363 nM.

Turning to `NS(=O)(=O)c1cc(NC(=O)Cc2ccccc2Br)ccc1-c1ccc(Cl)nc1` [Example 467, 2-(2-Bromophenyl)-N-[4-(6-chloropyridin-3-yl)-3-sulfamoylphenyl]acetamide], the Emax is 93% and the IC50 worked out at 9 nM.

As to `NS(=O)(=O)c1cc(NC(=O)Cc2ccc(F)c(F)c2)ccc1-c1ccc(Cl)nc1` [Example 468, N-[4-(6-Chloropyridin-3-yl)-3-sulfamoylphenyl]-2-(3,4-difluorophenyl)acetamide], the Emax came out at 97% and the IC50 is 278 nM.

With `Cc1ccc(CC(=O)Nc2ccc(-c3ccc(Cl)nc3)c(S(N)(=O)=O)c2)cc1` [Example 469, N-[4-(6-Chloropyridin-3-yl)-3-sulfamoylphenyl]-2-(4-methylphenyl)acetamide], the Emax was 90% and the IC50 came out at 453 nM.

Take `COc1ccc(CC(=O)Nc2ccc(-c3ccc(Cl)nc3)c(S(N)(=O)=O)c2)cc1` [Example 470, N-[4-(6-Chloropyridin-3-yl)-3-sulfamoylphenyl]-2-(4-methoxyphenyl)acetamide]: the Emax worked out at 93% and the IC50 came to 483 nM.

Regarding `Cc1ccc(CC(=O)Nc2ccc(-c3ccc(Cl)nc3)c(S(N)(=O)=O)c2)c(F)c1` [Example 471, N-[4-(6-Chloropyridin-3-yl)-3-sulfamoylphenyl]-2-(2-fluoro-4-methylphenyl)acetamide], the Emax was 92% and the IC50 was found to be 269 nM.

`COc1ccc(CC(=O)Nc2ccc(-c3ccc(Cl)nc3)c(S(N)(=O)=O)c2)c(F)c1` [Example 472, N-[4-(6-Chloropyridin-3-yl)-3-sulfamoylphenyl]-2-(2-fluoro-4-methoxyphenyl)acetamide]: the Emax amounted to 97% and the IC50 is 197 nM.

As to `NS(=O)(=O)c1cc(NC(=O)Cc2ccc(C(F)F)cc2)ccc1-c1ccc(Cl)nc1` [Example 473, N-[4-(6-Chloropyridin-3-yl)-3-sulfamoylphenyl]-2-[4-(difluoromethyl)phenyl]acetamide], the Emax was 93% and the IC50 was 530 nM.

As for `NS(=O)(=O)c1cc(NC(=O)Cc2ccc(C(F)(F)F)cc2Cl)ccc1-c1ccc(Cl)nc1` [Example 474, N-[4-(6-Chloropyridin-3-yl)-3-sulfamoylphenyl]-2-[2-chloro-4-(trifluoromethyl)phenyl]acetamide], the Emax was determined as 93% and the IC50 was 323 nM.

For `NS(=O)(=O)c1cc(NC(=O)Cc2ccc(Cl)cc2Cl)ccc1-c1cncc(F)c1` [Example 475, 2-(2,4-Dichlorophenyl)-N-[4-(5-fluoropyridin-3-yl)-3-sulfamoylphenyl]acetamide], the Emax amounted to 88% and the IC50 is 64 nM.

On to `Cc1ccc(CC(=O)Nc2ccc(-c3cncc(F)c3)c(S(N)(=O)=O)c2)c(F)c1` [Example 476, 2-(2-Fluoro-4-methylphenyl)-N-[4-(5-fluoropyridin-3-yl)-3-sulfamoylphenyl]acetamide], for which the Emax was 89% and the IC50 was 58 nM.

On to `NS(=O)(=O)c1cc(NC(=O)Cc2ccc(C(F)F)cc2)ccc1-c1cncc(F)c1` [Example 477, 2-[4-(Difluoromethyl)phenyl]-N-[4-(5-fluoropyridin-3-yl)-3-sulfamoylphenyl]acetamide], for which the Emax turned out to be 91% and the IC50 came out at 259 nM.

Take `NS(=O)(=O)c1cc(NC(=O)Cc2ccccc2Cl)ccc1-n1cc(C2CC2)cn1` [Example 478, 2-(2-Chlorophenyl)-N-[4-(4-cyclopropyl-1H-pyrazol-1-yl)-3-sulfamoylphenyl]acetamide]: the Emax was determined as 82% and the IC50 was 47 nM.

With `NS(=O)(=O)c1cc(NC(=O)Cc2ccccc2F)ccc1-n1nc2cc(F)cc(F)c2n1` [Example 479, N-[4-(4,6-Difluoro-2H-benzotriazol-2-yl)-3-sulfamoylphenyl]-2-(2-fluorophenyl)acetamide], the Emax amounted to 79% and the IC50 amounted to 145 nM.

As to `NS(=O)(=O)c1cc(NC(=O)Cc2ccccc2F)ccc1-n1nnc2c(F)cc(F)cc21` [Example 480, N-[4-(4,6-Difluoro-1H-benzotriazol-1-yl)-3-sulfamoylphenyl]-2-(2-fluorophenyl)acetamide], the Emax was 105% and the IC50 is 125 nM.

On to `NS(=O)(=O)c1cc(NC(=O)Cc2ccccc2Cl)ccc1-n1nnc2c(F)cc(F)cc21` [Example 481, 2-(2-Chlorophenyl)-N-[4-(4,6-difluoro-1H-benzotriazol-1-yl)-3-sulfamoylphenyl]acetamide], for which the Emax was 103% and the IC50 came to 50 nM.

The values are drawn from patent US11524938B2, “Aromatic sulfonamide derivatives” (Bayer Pharma Aktiengesellschaft, priority 2016, dated 2022).
